Laboratory results reported in patent US7244724B2, “Pyrrolobenzodiazepines” (United States of America, Represented by the Secretary, …, priority 2003, dated 2007).

Assays:
[1] = Stability in d6-DMSO, d4-MeOH and D2O by 1H NMR (Study 4); type: physicochemical
Experimental: Samples of SJG-720 (˜3 mg) were dissolved in d6-DMSO, D2O and d4-MeOH (Cambridge Isotopes) and transferred to separate NMR tubes (Wilmad, 5 mm). ^1H NMR spectra were obtained on a Bruker Avance 400 MHz NMR spectrophotometer (typically 64 scans). ^13C and DEPT (Distortionless Enhancement through Polarized Transfer) experiments were performed on these samples using the same instrument at the appropriate field strength (100 MHz).
NMR spectra were recorded, as described above, after the following time intervals: • d6-DMSO, 1 hr, 8 days. • D2O, 3 hrs, 8 days. • d4-MeOH, 10 minutes, 3 days. Additional Studies
NMR experiments were carried out on SJG-136 in its carbinolamine forms. […] However, strong signals corresponding to the kinetic and thermodynamic carbinolamine forms can be observed when the sample is analysed in d6-DMSO. These gradually disappear from the spectra over a period of about 24 hours when the imine form becomes the predominant species.
Samples of the bisulphite adduct SJG-720 dissolved in d6-DMSO and D2O were stored at room temperature for over a period of 7 days and then analysed by ^1H NMR spectroscopy. […] In addition, a sample of SJG-720 stored at room temperature in d4-MeOH for over 3 days was also analysed by ^1H NMR.

[2] = test system: K562 human chronic myeloid leukaemia cells; assay: K562 assay (MTT cytotoxicity); type: cell-based; settings: 96 h, 4 days incubation, n=2
Experimental: An initial stock of compound (in 0.006% DMSO) was used to generate a 1:3 dilution series ranging from 600 nM to 30 pM be the sequential addition of 40 μL compound to 80 μL of solvent (0.006% DMSO in sterile H2O). 10 μL of each point of the dilution range was transferred to a 96 well assay plate (Nunc, Cat. No. 163320) to generate four replica points per compound concentration. K562 human chronic myeloid leukaemia cells were maintained in RPM1 1640 medium supplemented with 10% foetal calf serum and 2 mM glutamine at 37° C. in a humidified atmosphere containing 5% CO2. 190 μL of a 5×10^4 cell solution was added to each well of the assay plate using a Matrix Wellmate (Apogent Discoveries), resulting in a total of 9.5×10^3 cells/well. Working compound concentrations therefore ranged from 30 nM to 1.5 pM. Plates were then kept in the dark at 37° C. in a humidified atmosphere containing 5% CO2. The assay is based on the ability of viable cells to reduce a yellow soluble tetrazolium salt, 3-(4,5-dimethylthiazol-2-yl)-2,5-diphenyl-2H-tetrazolium bromide (MTT, Aldrich-Sigma), to an insoluble purple formazan precipitate. […] The optical density was then read at a wavelength of 540 nm on a Fusion plate reader (Perkin Elmer). […]

Structure (SMILES) | Stability in D2O (1H NMR spectrum change) ([1]; D2O, room temperature, over 7 days) | Stability in d4-MeOH (interconversion to carbinolamine methyl ether) ([1]; d4-MeOH, room temperature, over 3 days) | Stability in d6-DMSO (reversion to parent imine) ([1]; d6-DMSO, room temperature, over 7 days) | IC50 [2] | Interconversion of carbinolamine forms to imine ([1]; CDCl3 or CD3CN) | Period over which carbinolamine form signals disappear and the imine form becomes predominant ([1]; carbinolamine forms in d6-DMSO)
C=C1C[C@H]2C(S(=O)(=O)[O-])Nc3cc(OCCCOc4cc5c(cc4OC)C(=O)N4CC(=C)C[C@H]4C(S(=O)(=O)[O-])N5)c(OC)cc3C(=O)N2C1.[Na+].[Na+] (stereo partly drawn) [SJG-720, 1,1′[[(Propane-1,3-diyl)dioxy]bis(11aS)-11-sulpho-7-methoxy-2-methylidene-1,2,3,10,11,11a-hexahydro-5H-pyrrolo[2,1-c][1,4-benzodiazepin-5-one]] sodium salt] | no appreciable hydrolysis had occurred | interconversion to the carbinolamine methyl ether from was not observed | complete absence of parent imine SJG-136 signals |  |  | 
C=C1C[C@H]2C=Nc3cc(OCCCOc4cc5c(cc4OC)C(=O)N4CC(=C)C[C@H]4C=N5)c(OC)cc3C(=O)N2C1 [SJG-136] |  |  |  | < 10 nM | revert to the imine form immediately | about 24 hours
